From patent publication US12084416B2, “Substituted sulfonylurea derivatives” (Zydus Lifesciences Limited, priority 2019, dated 2024)

Legend:
IL-1β [1] = assay: In-vitro IL-1β inhibition assay in PMA-differentiated, LPS-primed, ATP-stimulated THP1 cells; type: cell-based; conditions: Homo sapiens, THP-1; THP1 monocytes differentiated with PMA, primed with 500 ng/mL LPS, compound 30 min, 5 mM ATP 1 hr; IL-1β in supernatant; read-out: IC50 (nM), invitro IL-1β inhibitory activity
Procedure: THP1 monocytes were differentiated with PMA (100 ng/mL) and incubated at 37 deg C. for 20 hrs in presence of 5% CO2. 2×10^5 differentiated cells were plated per well of 96 well tissue culture plates. The cells were primed using 500 ng/mL Lipopolysaccharide and incubating for 4 h under the same condition. The cells were then treated with various concentrations of the compounds for 30 min followed by treatment with 5 mM ATP for 1 hr. The supernatants were collected and analyzed by IL-1b (Mabtech Cat #3415-1H-20) or TNF-α (Mabtech; Cat #3510-1H-20) detection kit. The data were analyzed using GraphPad Prism V7.0. Dose Response Curve (DRC) was constructed to determine the IC50 value by fitting percentage […] data to the GraphPad Prism using nonlinear regression analysis.

IL-1β [2] = assay: In-vivo LPS and ATP induced IL-1β assay; conditions: Mus musculus, 2.5 h; Dose 10 mpk, po; female C57 mice; serum IL-1β by ELISA; read-out: % IL-1β inhibition in LPS + ATP challenged C57 mice
Procedure: All the animal experiments were carried out in female rats and mice, bred in-house. Animals were housed in groups of 6 animals per cage, for a week, in order to habituate them to vivarium conditions (25 f 4° C., 60-65% relative humidity, 12:12 h light:dark cycle, with lights on at 7.30 am). All the animal experiments were carried out according to the internationally valid guidelines following approval by the ‘Zydus Research Center animal ethical committee’.
Female C57 mice (6-8 weeks) received intraperitoneal injection of 50 μg/mouse of lipopolysaccharide (LPS) in PBS. Animals were treated immediately with the test compounds or the vehicle. After 2 h of LPS injection, animals were administered with ATP at 12.5 mg/mouse dissolved in PBS via intraperitoneal route. After 30 minutes of ATP injection, serum was collected for IL-1β estimation by ELISA.

IC50 (IL-1β [1]) [nM]	SMILES	inhibition in vivo at 10 mg/kg (IL-1β [2]) [%]
7.4	CCCN1CCC[C@@H]1/C=C/S(=O)(=O)NC(=O)Nc1c2c(cc3c1CCC3)CCC2 [Example 4, (R,E)-N-((1,2,3,5,6,7-hexahydro-s-indacen-4-yl)carbamoyl)-2-(1-propylpyrrolidin-2-yl)ethene-1-sulfonamide]	90
–	CC(=O)N1CCC[C@H]1/C=C/S(=O)(=O)NC(=O)Nc1c2c(cc3c1CCC3)CCC2 [Example 69, (S,E)-2-(1-acetylpyrrolidin-2-yl)-N-((1,2,3,5,6,7-hexahydro-s-indacen-4-yl)carbamoyl)-ethenesulfonamide]	84
–	O=C(Nc1c2c(cc3c1CCC3)CCC2)NS(=O)(=O)/C=C/C1CCCO1 (stereo not shown) [Example 73, (E)-N-((1,2,3,5,6,7-hexahydro-s-indacen-4-yl)carbamoyl)-2-(tetrahydrofuran-2-yl)ethene-1-sulfonamide]	80
–	CC(C)c1cc(F)cc(C(C)C)c1NC(=O)NS(=O)(=O)/C=C/[C@@H]1CCCN1C [Example 77, (S,E)-N-((4-fluoro-2,6-diisopropylphenyl)carbamoyl)-2-(1-methylpyrrolidin-2-yl)ethene-1-sulfonamide]	47
–	CN1CCCCC1/C=C/S(=O)(=O)NC(=O)Nc1c2c(cc3c1CCC3)CCC2 (stereo not shown) [Example 101, (E)-N-((1,2,3,5,6,7-hexahydro-s-indacen-4-yl)carbamoyl)-2-(1-methylpiperidin-2-yl)ethene-1-sulfonamide]	82
–	CN1CCC[C@H]1/C=C/S(=O)(=O)NC(=O)Nc1cc2c(c3c1CCC3)CCC2 [Example 102, (E)-N-((1,2,3,6,7,8-hexahydro-as-indacen-4-yl)carbamoyl)-2-(1-methylpyrrolidin-2-yl)ethene-1-sulfonamide]	74
